The record followed here is US20020103136A1, “Conjugates useful in the treatment of prostate cancer” (priority 1998, published 2002).

Assay [1] concerns LNCap prostate tumor cells. As to the kind of experiment: In vitro cytotoxicity, Alamar Blue assay, LNCaP cell kill in 72 hrs. Type of assay: cell-based. The note with it: Table 3, 3 days, TFA salt of cytotoxic agent unless otherwise indicated, read-out: LNCaP Cell Kill in 72 HRS EC5O. How it is done:
(§1) The cytotoxicities of the vinca alkaloid derivatives, prepared as described in Example 1, and the cleaveable oligopeptide-vinca drug conjugates, prepared as described in Examples 2 and 2A, against a line of cells which is known to be killed by unmodified vinca drug was assessed with an Alamar Blue assay. Specifically, cell cultures of LNCap prostate tumor cells, Colo320DM cells (also designated C320), T24 bladder carcinoma cells or T47D breast carcinoma cells in 96 well plates was diluted with medium containing various concentrations of a given conjugate (final plate well volume of 200 μl). The cells were incubated for 3 days at 37° C., 20 μl of Alamar Blue is added to the assay well. The cells were further incubated and the assay plates were read on a EL-310 ELISA reader at the dual wavelengths of 570 and 600 nm at 4 and 7 hours after addition of Alamar Blue. Relative percentage viability at the various concentration of conjugate tested was then calculated versus control (no cytotoxic agent or conjugate) cultures. Unless otherwise indicated, the TFA salt of the cytotoxic agent and the acetate salt of the conjugate were tested.

The test system of assay [2] is Colo320DM cells (also designated C320). As to the kind of experiment: In vitro cytotoxicity, Alamar Blue assay, Colo320DM cells. The format is cell-based. The note with it: Table 3, value in parentheses, TFA salt unless otherwise indicated, read-out: Cell Kill in 72 HRS EC5O, Colo320DM. How it is done:
as §1

Turning to `CC[C@]1(O)C[C@@H]2CN(CCc3c([nH]c4ccccc34)[C@@](C(=O)OC)(c3cc4c(cc3OC)N(C)[C@H]3[C@@](O)(C(=O)N[C@H](CO)CC5CCCCC5)[C@H](O)[C@]5(CC)C=CCN6CC[C@]43[C@@H]65)C2)C1` [L-cyclolhexyl-alaninol-(dAc)-VIN], the EC50 stood at 1 µM in assay [1] and 2 µM in assay [2].
For `CC[C@]1(O)C[C@@H]2CN(CCc3c([nH]c4ccccc34)[C@@](C(=O)OC)(c3cc4c(cc3OC)N(C)[C@H]3[C@@](O)(C(=O)NC(C)C(O)C5CCCCC5)[C@H](O)[C@]5(CC)C=CCN6CC[C@]43[C@@H]65)C2)C1` (single isomer, unassigned; isomer a) [(3-cyclohexyl-3-hydroxyl-2-propylaminol)-(dAc)-VIN isomer A], the EC50 in assay [1] is 0.3 µM; in assay [2], 0.5 µM.
Take `CC[C@]1(O)C[C@@H]2CN(CCc3c([nH]c4ccccc34)[C@@](C(=O)OC)(c3cc4c(cc3OC)N(C)[C@H]3[C@@](O)(C(=O)NC5CCCCC5O)[C@H](O)[C@]5(CC)C=CCN6CC[C@]43[C@@H]65)C2)C1` (single isomer, unassigned; isomer a) [(trans-2-hydroxyl)cyclohexylamine-(dAc)-VIN, Isomer A]: the EC50 in assay [1] turned out to be 0.1 µM; in assay [2], 0.2 µM.
For `CC[C@]1(O)C[C@@H]2CN(CCc3c([nH]c4ccccc34)[C@@](C(=O)OC)(c3cc4c(cc3OC)N(C)[C@H]3[C@@](O)(C(=O)NC(CO)c5ccccc5)[C@H](O)[C@]5(CC)C=CCN6CC[C@]43[C@@H]65)C2)C1` (stereo partly shown) [Phenylglyinol-(dAc)-VIN], the EC50 in assay [1] came to 0.7 µM; in assay [2], 4.8 µM.
With `CC[C@]1(O)C[C@@H]2CN(CCc3c([nH]c4ccccc34)[C@@](C(=O)OC)(c3cc4c(cc3OC)N(C)[C@H]3[C@@](O)(C(=O)NC(c5ccccc5)C(O)c5ccccc5)[C@H](O)[C@]5(CC)C=CCN6CC[C@]43[C@@H]65)C2)C1` (stereo partly shown) [1,2-diPhenylethanolamino-(dAc)-VIN], the results for the EC50 in assay [1] and in assay [2] were 2.2 µM and 8.9 µM, respectively.
For `CC[C@]1(O)C[C@@H]2CN(CCc3c([nH]c4ccccc34)[C@@](C(=O)OC)(c3cc4c(cc3OC)N(C)[C@H]3[C@@](O)(C(=O)N5CCCC(O)C5)[C@H](O)[C@]5(CC)C=CCN6CC[C@]43[C@@H]65)C2)C1` (single isomer, unassigned; isomer a) [3-hydroxyl-piperidine-(dAc)-VIN, isomer A] the same measures were 0.5 µM and 0.5 µM.
In the case of `CC[C@]1(O)C[C@@H]2CN(CCc3c([nH]c4ccccc34)[C@@](C(=O)OC)(c3cc4c(cc3OC)N(C)[C@H]3[C@@](O)(C(=O)NCC(C)O)[C@H](O)[C@]5(CC)C=CCN6CC[C@]43[C@@H]65)C2)C1` (stereo partly shown) [2-hydroxylpropylamino-(dAc)-VIN], the EC50 worked out at 1.2 µM in assay [1] and 2.9 µM in assay [2].
For `CCC1(O)CC2CN(CCc3c([nH]c4ccccc34)C(C(=O)OC)(c3cc4c(cc3OC)N(C)C3C(O)(C(=O)NC(C)C(O)c5ccccc5)C(O)C5(CC)C=CCN6CCC43C65)C2)C1` (single isomer, unassigned; isomer b) [norephedrine-(dAc)-VIN, isomer B] the same measures were 0.2 µM and 0.4 µM.
Take `CC[C@]1(O)C[C@@H]2CN(CCc3c([nH]c4ccccc34)[C@@](C(=O)OC)(c3cc4c(cc3OC)N(C)[C@H]3[C@@](O)(C(=O)NC(C)C(O)C5CCCCC5)[C@H](O)[C@]5(CC)C=CCN6CC[C@]43[C@@H]65)C2)C1` (single isomer, unassigned; isomer b) [(3-cyclohexyl-3-hydroxyl-2-propylaminol)-(dAc)-VIN isomer B]: the EC50 in assay [1] was determined as 1.2 µM; in assay [2], 0.8 µM.
On to `CC[C@]1(O)C[C@@H]2CN(CCc3c([nH]c4ccccc34)[C@@](C(=O)OC)(c3cc4c(cc3OC)N(C)[C@H]3[C@@](O)(C(=O)N5CCCC(O)C5)[C@H](O)[C@]5(CC)C=CCN6CC[C@]43[C@@H]65)C2)C1` (single isomer, unassigned; isomer b) [3-hydroxyl-piperidine-(dAc)-VIN, isomer B], for which the EC50 in assay [1] came out at 0.5 µM.
